Test results published in US20200405687A1, “METHODS FOR THE TREATMENT OF INFECTION” (Corbus Pharmaceuticals, Inc., priority 2016, published 2020).
Entries after “also recorded” stand apart in the source; their conditions may differ.

Key:
Pseudomonas aeruginosa = Pseudomonas aeruginosa agarose bead lung infection in WT C57BL/6J mice (Example 1); format: in vivo
Procedure: Ajulemic acid (AJA) was tested in mice inoculated with Pseudomonas aeruginosa to determine its effect on treatment of infection, including the ability to promote bacterial clearance. Mice (WT, C57BL/6J) were inoculated with Pseudomonas aeruginosa agarose beads in the lungs and then treated twice daily with oral doses of ajulemic acid at 1 mg/kg and 5 mg/kg. Ajulemic acid was then administered by gavage at 1 mg/kg or 5 mg/kg dose BID in 2% methylcellulose for 10 days starting 24 hours after establishing chronic Pseudomonas aeruginosa infection. WT animals in this study were followed daily for clinical score and weights for 10 days. At Day 10, animals were euthanized and evaluated for bacteria load (colony forming units, cfus), total bronchoalveolar lavage (BAL), white blood cell counts (WBCs), and differential cell counts.
The study was conducted with 40 wild type female C57BL/6J mice. Each group of mice was inoculated with 10^5 colony forming units (CFUs) of Pseudomonas aeruginosa (PAM 5715, a CF clinical isolate). One day post infection, mice were given either 2% methylcellulose, 2% methylcellulose+1 mg/kg ajulemic acid, or 2% methylcellulose+5 mg/kg ajulemic acid BID. Animals were followed for 10 days. At day 10, animals were euthanized for BAL CFUs, differentials, total white blood cell count with fluid, and pellet saved for future studies.
Treatment and control groups include the following Pseudomonas aeruginosa infected controls treated with 2% methylcellulose, Pseudomonas aeruginosa infected animals treated with 1 mg/kg BID AJA in 2% methylcellulose, Pseudomonas aeruginosa infected animals treated with 5 mg/kg BID AJA in 2% methylcellulose, and untreated baseline controls.

[1] = system: UV-killed Escherichia coli; test: Skin challenge (blister) model, intradermal UV-killed E. coli in healthy volunteers (Example 3); format: in vivo, humans; conditions: for infiltration of neutrophils at the site of inflammation (blister exudate): 4 h and 10 h
Procedure: The ability of administration of a pharmaceutical composition including ajulemic acid to treat infection was assayed in a skin challenge model. A self-resolving acute inflammatory response was triggered by the intradermal injection of UV-killed Escherichia coli into the forearm of healthy volunteers. […] This study was performed to determine whether ajulemic acid promotes the resolution of infection at the site of inflammation, thereby treating that infection.
Cells and exudates were harvested at several time points following injection of UV-killed E. coli by applying negative pressure over the inflamed site.
The study included four experimental groups (n=10 in each group): • 1) Placebo, twice daily for four days • 2) Ajulemic acid, 5 mg, twice daily for four days • 3) Ajulemic acid, 20 mg, twice daily for four days • 4) Prednisone, 15 mg daily for four days
The volunteer (healthy males, 18-50 years) were randomly allocated to one of the above three groups and orally administered the test drug for four consecutive days. On the morning of the fourth day (after intake of the first dose), experimental acute inflammation was elicited by infection with UV-killed E. coli. The drug and the placebo were provided as capsules.
UV killed E. coli (Strain: NCTC 10418, Source: Public Health England, UK) were prepared as follows. E. coli described were grown overnight in Luria Broth (Sigma) at 37° C. The next morning, the bacteria were washed twice in sterile PBS (2500 g, 20 min, 4° C.) and resuspended in a sterile petri dish.
Bacteria were then killed by exposure to an ultraviolet light (UV) source (302 nm, ChemiDoc, trans-UV mode; Bio-Rad laboratories) for 60 min and then washed again in sterile saline. Bacterial counts were determined by optical density (OD600=0.365 equates to […] E. coli/ml). UVKEc were resuspended in a volume of sterile saline to obtain the count of 1.5×10^8/ml, aliquoted into sterile eppendorf tubes and then frozen at −80° C. until used for injections.
After disinfecting and shaving the skin, 1.5×10^7 UVKEc in 100 μl saline were injected intradermally into a marked site on the volar aspect of each forearm. To characterize the treatment of infection using ajulemic acid, each forearm was allotted to one of the predefined time-points namely 4, 8, 14, 24, 48 or 72 hours (h). Thus the effects of intradermal injection of UVKEc were allowed to progress for the duration of the time-point after which a suction blister was raised over the marked injection site, and then aspirated immediately. In summary, volunteer had two injection sites, one on each forearm, and contributed to two time points. On a separate group of volunteers, blister was raised on the naïve skin and treated as the baseline time point. Study time-points were discussed with volunteers before consenting.
Laser Doppler Imager (moor LDI-HIR, Moor Instruments Ltd, Axminster, Devon, UK) was used to quantify the blood flow at the site of infection. At predefined time points after injection of UVKEc, the forearm was placed under the scanner at a fixed distance to scan a fixed area. The scanner emits a laser beam, a portion of which is scattered by red blood cells present at the inflamed area. The scattering causes a change in frequency of the reflected light which is then detected by a photo detector. The velocity and concentration of red blood cells at the site directly affect the Doppler frequency shifts and account for the signal strength measured in arbitrary perfusion units. […] The total blood flow (measured in perfusion units) was calculated as product of number of valid pixels above background signal (Cut-off=300 perfusion units) and the mean blood flow signal over the valid pixels 11, 12.
To obtain the exudate from the site of infection, a 10 mm diameter suction blister was induced directly over the site of injection. […]

CCCCCCC(C)(C)c1cc(O)c2c(c1)OC(C)(C)[C@@H]1CC=C(C(=O)O)C[C@@H]21 [ajulemic acid, (6aR,10aR)-1-hydroxy-6,6-dimethyl-3-(2-methyl-2-octanyl)-6a,7,10,10a-tetrahydro-6H-benzo[c]chromene-9-carboxylic acid]
white blood cell response (Pseudomonas aeruginosa; 1 mg/kg and 5 mg/kg BID oral, day 3, relative to controls infected or not infected): elevated
weight profiles (body weight maintenance) (Pseudomonas aeruginosa; 1 mg/kg or 5 mg/kg BID, 10 days): no real adverse effect
bacterial load of Pseudomonas aeruginosa (bacterial CFUs in the lungs) (Pseudomonas aeruginosa; 5 mg/kg BID oral, day 10): effective at decreasing the overall number of bacterial CFUs in the lungs
treatment of infection compared with vehicle (Pseudomonas aeruginosa; WT C57BL/6J mice): more efficient at treating infection than vehicle
tolerability (Pseudomonas aeruginosa; WT C57BL/6J mice, 1 or 5 mg/kg BID oral, 10 days): well tolerated
white blood cells (Pseudomonas aeruginosa; all groups, day 10, compared to controls): normalized
levels of neutrophils (Pseudomonas aeruginosa; all treatment groups relative to the non-treated control): elevated levels of neutrophils
levels of lymphocytes or eosinophils (Pseudomonas aeruginosa; any of the groups): no significant difference
alveolar macrophages (Pseudomonas aeruginosa; treatment groups, by day 10): increase in alveolar macrophages
neutrophils (Pseudomonas aeruginosa; treatment groups, by day 10): decreased neutrophils
pro-resolving macrophages during the resolution arm of innate immune response ([1]; 5 mg or 20 mg): increases pro-resolving macrophages
IL-8 (pro-inflammatory cytokine) levels in inflammatory exudate ([1]; 5 mg or 20 mg BID, 4 hr and 10 hr, multiplex ELISA, listed as Ajulemic acid): reduce
time course of neutrophil infiltration at the site of inflammation ([1]; 20 mg ajulemic acid group, relative to placebo): neutrophil infiltration is decreased relative to placebo
rise in C-reactive protein (CRP) levels in serum ([1]; after UVKEc triggered acute inflammation, multiple time points): does not appear to inhibit the rise in C-reactive protein levels
infiltration of neutrophils at the site of inflammation (blister exudate) ([1]; ajulemic acid 5 mg or 20 mg BID, prednisone 15 mg daily, relative to placebo): decrease in the infiltration of neutrophils
infiltration of neutrophils at the site of inflammation (blister exudate) ([1]; ajulemic acid 5 mg or 20 mg BID, prednisone 15 mg daily, relative to placebo, listed as Ajulemic acid): reduce
levels of endotoxin at the site of injection ([1]; ajulemic acid 5 mg or 20 mg BID, prednisone 15 mg daily, 4 hr and 10 hr, limulus amoebocyte lysate test): decreased levels of endotoxin; also recorded: reduces levels of endotoxin
local vascular blood flow at injection site (laser Doppler) ([1]; at least 20 mg AJA BID, four days): increase in local blood flow
vasodilation ([1]; summary of blister model results): reduce vasodilation
